Results as given in patent US6071966A, “1-amino-alkylcyclohexane NMDA receptor antagonists” (Merz + Co. GmbH & Co., priority 1998, dated 2000).
Where a name gives a salt, the structure may show the parent alone.

What was measured:
[1] = Traction reflex test (myorelaxant action); type: in vivo; settings: mouse, traction reflex versus mes, ip; mice, i.p.; Table 8; read-out: TI Tract. (ED50 traction reflex impairment / ED50 MES)
Method: (§1) NMR female mice (18-28 g) housed 5 per cage were used for the maximal electroshock (MES) and motor impairment tests. […] All compounds were dissolved in 0.9% saline.
(§2) The MES test was performed together with tests for myorelaxant action (traction reflex) and motor coordination (rotarod). For the traction reflex test mice were placed with their forepaws on a horizontal rod and were required to place all 4 paws on the wire within 10 seconds. To test ataxia (motor coordination) mice were placed on rotarod (5 rpm) and were required to remain on the rod for 1 minute. […] These tests were followed by MES (100 Hz, 0.5 second shock duration, 50 mA shock intensity, 0.9 ms impulse duration, Ugo Basile) applied through corneal electrodes. The presence of tonic convulsions was scored (tonic extension of hind paws with minimum angle to the body of 90°). The aim was to obtain ED50 s for all parameters scored (anticonvulsive activity and motor side effects) with use of the Litchfield Wilcoxon test for quantal dose responses. Division of the ED50 for side effects (ataxia or myorelaxation) by the ED50 for antagonism of electroshock convulsions was used as a therapeutic index (TI). […]

[2] = Rotarod test (motor coordination, ataxia); type: in vivo; settings: mouse, ip, mice, i.p., Table 8, read-out: TI Rot. (ED50 rotarod failure / ED50 MES)
Method: All compounds were dissolved in 0.9% saline.
(§3) The MES test was performed together with tests for myorelaxant action (traction reflex) and motor coordination (rotarod). For the traction reflex test mice were placed with their forepaws on a horizontal rod and were required to place all 4 paws on the wire within 10 seconds. To test ataxia (motor coordination) mice were placed on rotarod (5 rpm) and were required to remain on the rod for 1 minute. […] These tests were followed by MES (100 Hz, 0.5 second shock duration, 50 mA shock intensity, 0.9 ms impulse duration, Ugo Basile) applied through corneal electrodes. The presence of tonic convulsions was scored (tonic extension of hind paws with minimum angle to the body of 90°). The aim was to obtain ED50 s for all parameters scored (anticonvulsive activity and motor side effects) with use of the Litchfield Wilcoxon test for quantal dose responses. Division of the ED50 for side effects (ataxia or myorelaxation) by the ED50 for antagonism of electroshock convulsions was used as a therapeutic index (TI).
(§4) Pearson product moment correlation analysis (Sigma Stat, Jandel Scientific) was used to compare in vitro potencies and in vivo anticonvulsant activity.

NMDA receptor [3] = experiment: [3H]-(+)-MK-801 receptor binding to rat cortical membranes; settings: read-out: [3H]MK-801 IC50, [3H]-(+)-MK-801 5 nM, Table 7
Method: Male Sprague-Dawley rats (200-250 g) were decapitated and their brains were removed rapidly. The cortex was dissected and homogenized in 20 volumes of ice-cold 0.32 M sucrose using a glass-Teflon homogenizer. The homogenate was centrifuged at 1000×g for 10 minutes. The pellet was discarded and the supernatant centrifuged at 20,000×g for 20 minutes. The resulting pellet was re-suspended in 20 volumes of distilled water and centrifuged for 20 minutes at 8000×g. Then the supernatant and the buffy coat were centrifuged three times (48,000×g for 20 minutes) in the presence of 50 mM Tris-HCl, pH 8.0. All centrifugation steps were carried out at 4° C. After resuspension in 5 volumes of 50 mM Tris-HCl, pH 8.0 the membrane suspension was frozen rapidly at -80° C. On the day of assay the membranes were thawed and washed four times by resuspension in 50 mM Tris-HCl, pH 8.0 and centrifugation at 48,000×g for 20 minutes. The final pellet was suspended in assay buffer. The amount of protein in the final membrane preparation was determined according to the method of Lowry with some modifications. The final protein concentration used for our studies was between 250-500 μg/ml.
Membranes were re-suspended and incubated in 50 mM Tris-HCl, pH 8.0. […] Incubations were terminated using a Millipore filter system. The samples were rinsed three times with 2.5 ml ice cold assay buffer over glass fiber filters obtained from Schleicher & Schuell under a constant vacuum. Filtration was performed as rapidly as possible. Following separation and rinse, the filters were placed into scintillation liquid (5 ml; Ultima Gold) and radioactivity retained on the filters was determined with a conventional liquid scintillation counter (Hewlett Packard, Liquid Scintillation Analyser).
IC50 s in patch clamp, excitotoxicity, and binding studies were calculated according to the four parameter alogistic equation using the Grafit computer program (Erithacus Software, England). Ki value for binding studies were then determined according to Cheng and Prusoff. Binding values presented are means ±SEM of 3-5 determinations (each performed in duplicate).

[4] = i.p.; Table 8
[5] = test system: MES-induced convulsions in mice; experiment: Anticonvulsive activity: maximal electroshock (MES) test; type: in vivo; settings: for ED50: Mus musculus, ip, 0.5 h; for MES ED50: i.p., Table 8, 30 min
Method: as §1, §3, §4

traction reflex in mice = experiment: Traction reflex test (myorelaxant action); type: in vivo; settings: i.p., Table 8
Method: as §1, §2

NMDA receptor [6] = settings: clinical / human use; cited from earlier work

`C[C@@H]1CC(C)(C)C[C@@](C)(N)C1` (relative stereo) [Mrz 2/607] showed a selectivity ratio [1] of 1.3 and a selectivity ratio ([2]; rotarod versus mes) of 1.7.
With `CCC[C@@]1(C)C[C@H](C)C[C@@](C)(N)C1` (relative stereo) [Mrz 2/618] the selectivity ratio [1] was 1.2 and the selectivity ratio ([2]; rotarod versus mes) was 1.1.
`CCC[C@]1(C)C[C@@H](C)C[C@@](C)(N)C1` (relative stereo) [Mrz 2/619] gave a selectivity ratio [1] of 1 and a selectivity ratio ([2]; rotarod versus mes) of 1.
Molecule `CC[C@@]1(C)C[C@H](C)C[C@@](C)(N)C1` (relative stereo) [Mrz 2/622] has an IC50 (NMDA receptor [3]) of 150 µM, a selectivity ratio [1] of 1.1 and a selectivity ratio ([2]; rotarod versus mes) of 1.7.
`CC[C@]1(C)C[C@@H](C)C[C@@](C)(N)C1` (relative stereo) [Mrz 2/624] gave a selectivity ratio [1] of 0.9 and a selectivity ratio ([2]; rotarod versus mes) of 1.
Molecule `C[C@@H]1CCC[C@@](C)(N)C1` (relative stereo) [Mrz 2/625] has a selectivity ratio [1] of 0.5 and a selectivity ratio ([2]; rotarod versus mes) of 1.2.
Work on `CCC[C@@H]1CCC[C@@](C)(N)C1` (relative stereo) [Mrz 2/627] yielded a selectivity ratio [1] of 0.8 and a selectivity ratio ([2]; rotarod versus mes) of 1.
Work on `CCC[C@H]1CCC[C@@](C)(N)C1` (relative stereo) [Mrz 2/628] yielded a selectivity ratio [1] of 0.8 and a selectivity ratio ([2]; rotarod versus mes) of 1.6.
For `CC[C@@H]1CCC[C@@](C)(N)C1` (relative stereo) [Mrz 2/629], the selectivity ratio [1] was 0.9 and the selectivity ratio ([2]; rotarod versus mes) was 0.9.
For `CC[C@H]1CCC[C@@](C)(N)C1` (relative stereo) [Mrz 2/630], the IC50 (NMDA receptor [3]) was 443 µM and the “Min Lethality” value [4] was greater than 30 mg/kg.
For `C[C@H]1CCC[C@@](C)(N)C1` (relative stereo) [Mrz 2/631], the “Min Lethality” value [4] was greater than 30 mg/kg.
In the case of `CC[C@H]1CC(C)(C)C[C@@](C)(N)C1` (relative stereo) [Mrz 2/632], the selectivity ratio [1] is reported as 2.7 and the selectivity ratio ([2]; rotarod versus mes) is reported as 3.4.
`CC[C@@H]1CC(C)(C)C[C@@](C)(N)C1` (relative stereo) [Mrz 2/633] showed a selectivity ratio [1] of 2.4 and a selectivity ratio ([2]; rotarod versus mes) of 3.
With `CCC[C@H]1CC(C)(C)C[C@@](C)(N)C1` (relative stereo) [Mrz 2/634] the ED50 ([5]; Table 8) was greater than 30 mg/kg, the ED50 ([5]; i.p. 30 min before, Table 7) was greater than 30 mg/kg and the “Min Lethality” value [4] was greater than 30 mg/kg.
For `CCC[C@@H]1CC(C)(C)C[C@@](C)(N)C1` (relative stereo) [Mrz 2/635], the selectivity ratio [1] was 1.3 and the selectivity ratio ([2]; rotarod versus mes) was 1.4.
For `C[C@H]1CC(C)(C)C[C@@](C)(N)C1` (relative stereo) [Mrz 2/643], the ED50 ([5]; i.p. 30 min before, Table 7) was 16.6 mg/kg and the “TI Tract. (ED50 traction reflex impairment / ED50 MES)” value (traction reflex in mice) was 1.3.
For `NC12CC3CC(CC(C3)C1)C2` [Amantadine, reference compound], the “MES ED50” value [5] is given as 184.0 mg/kg i.p and the side effects (NMDA receptor [6]) is given as “rarely produce side effects at the therapeutic doses”.
In the case of `C[C@]12N[C@H](Cc3ccccc31)c1ccccc12` [MK-801, (+)-5-methyl-10,11-dihydro-5H-dibenzocyclohepten-5,10-imine maleate, reference compound], the “MES ED50” value [5] is given as 0.16 mg/kg i.p and the side effects (NMDA receptor [6]) is given as “some psychotropic side effects were apparent at therapeutic doses”.
For `C[C@@H]1C[C@H](C)C[C@@](C)(N)C1` [MRZ 2/680, 1-amino-1(trans),3(trans),5-trimethylcyclohexane], the “TI Tract. (ED50 traction reflex impairment / ED50 MES)” value (traction reflex in mice) was 0.7.
For `C[C@@H]1C[C@H](C)C[C@](C)(N)C1` [MRZ 2/681, 1-amino-1(cis),3(cis),5-trimethylcyclohexane], the “TI Tract. (ED50 traction reflex impairment / ED50 MES)” value (traction reflex in mice) was 2.1 and the selectivity ratio ([2]; rotarod versus mes) was 5.3.
In the case of `CC[C@H]1CC(C)(C)C[C@](C)(N)C1` [MRZ 2/682, 1-amino-(1R,5S)trans-3-ethyl-1,5,5-trimethylcyclohexane], the “TI Tract. (ED50 traction reflex impairment / ED50 MES)” value (traction reflex in mice) is reported as 2.7.
With `CC[C@H]1CC(C)(C)C[C@@](C)(N)C1` [MRZ 2/683, 1-amino-(1S,5S)cis-3-ethyl-1,5,5-trimethylcyclohexane] the “TI Tract. (ED50 traction reflex impairment / ED50 MES)” value (traction reflex in mice) was 2.7.
In the case of `CC12CC3CC(C)(C1)CC(N)(C3)C2` [Memantine, reference compound], the “TI Tract. (ED50 traction reflex impairment / ED50 MES)” value (traction reflex in mice) is given as 2.9 and the side effects (NMDA receptor [6]) is given as “rarely produce side effects at the therapeutic doses”.
In the case of `CC1(C)CC(N)CC(C)(C)C1` [Mrz 2/557], the selectivity ratio [1] is reported as 1 and the selectivity ratio ([2]; rotarod versus mes) is reported as 1.4.
In the case of `CC1(C)CC(CN)CC(C)(C)C1.Cl` [Mrz 2/580, 3,3,5,5-tetramethylcyclohexylmethylamine hydrochloride], the selectivity ratio [1] is reported as 1.6, the selectivity ratio ([2]; rotarod versus mes) is reported as 1.3 and the “Min Lethality” value [4] is reported as 50 mg/kg.
Molecule `CCC1(N)CC(C)(C)CC(C)(C)C1` [Mrz 2/600, 1-amino-1-ethyl-3,3,5,5-tetramethylcyclohexane] has an IC50 (NMDA receptor [3]) of 24 µM, a selectivity ratio [1] of 0.6 and a selectivity ratio ([2]; rotarod versus mes) of 0.9. For the same molecule, the “Min Lethality” value [4] was 50 mg/kg.
In the case of `CCCC1(N)CC(C)(C)CC(C)(C)C1` [Mrz 2/601, 1-amino-1-propyl-3,3,5,5-tetramethylcyclohexane], the “MES ED50” value [5] is reported as 15.6 mg/kg i.p, the selectivity ratio [1] is reported as 1.5 and the selectivity ratio ([2]; in vivo) is reported as 1.5. The “Min Lethality” value [4] was 50 mg/kg.
For `CCCC1(C)CC(C)(C)CC(C)(N)C1` (centres unmarked) [Mrz 2/614], the “TI Tract. (ED50 traction reflex impairment / ED50 MES)” value (traction reflex in mice) was 1.9.
With `CCC1(C)CC(C)(C)CC(C)(N)C1` (centres unmarked) [Mrz 2/615, 1-amino-1,3,5,5-tetramethyl-3-ethylcyclohexane] the selectivity ratio [1] was 2.5, the selectivity ratio ([2]; rotarod versus mes) was 3.2 and the “Min Lethality” value [4] was 50 mg/kg.
In the case of `CCCC1(C)CCCC(C)(N)C1` (centres unmarked) [Mrz 2/617], the “TI Tract. (ED50 traction reflex impairment / ED50 MES)” value (traction reflex in mice) is reported as 1.1.
In the case of `CCC1(C)CCCC(C)(N)C1` (centres unmarked) [Mrz 2/620], the “TI Tract. (ED50 traction reflex impairment / ED50 MES)” value (traction reflex in mice) is reported as 1.6 and the selectivity ratio ([2]; rotarod versus mes) is reported as 1.1.
With `CCC1(CC)CC(C)(C)CC(C)(N)C1` (centres unmarked) [Mrz 2/623, 1-amino-1,5,5-trimethyl-3,3-diethylcyclohexane] the selectivity ratio [1] was 1.4, the selectivity ratio ([2]; rotarod versus mes) was 1.8 and the “Min Lethality” value [4] was greater than 30 mg/kg.
For `CCCC1(CCC)CC(C)(C)CC(C)(N)C1` (centres unmarked) [Mrz 2/626], the “TI Tract. (ED50 traction reflex impairment / ED50 MES)” value (traction reflex in mice) was 1.1.
For `CCNC1(C)CC(C)(C)CC(C)(C)C1` [Mrz 2/639, N-ethyl-1-amino-1,3,3,5,5-pentamethylcyclohexane], the selectivity ratio [1] was 2.6, the selectivity ratio ([2]; rotarod versus mes) was 4.4 and the “Min Lethality” value [4] was 30 mg/kg.
With `CNC1(C)CC(C)(C)CC(C)(C)C1.Cl` [Mrz 2/640, N,1,3,3,5,5-hexamethylcyclohexanamine hydrochloride] the selectivity ratio [1] was 2.3, the selectivity ratio ([2]; rotarod versus mes) was 3.3 and the “Min Lethality” value [4] was 108 mg/kg.
With `CC1(N)CCCCC1` [Mrz 2/641] the “Min Lethality” value [4] was greater than 50 mg/kg.
For `CN(C)C1(C)CC(C)(C)CC(C)(C)C1` [Mrz 2/642], the “MES ED50” value [5] was 8.04 mg/kg i.p, the selectivity ratio [1] was 4.1 and the selectivity ratio ([2]; in vivo) was 5.3.
`CC1(C)CC(CCN)CC(C)(C)C1` [Mrz 2/644] showed a selectivity ratio [1] of 0.5 and a selectivity ratio ([2]; rotarod versus mes) of 0.6.
With `CC(C)(N)CC1CC(C)(C)CC(C)(C)C1` [Mrz 2/645] the “TI Tract. (ED50 traction reflex impairment / ED50 MES)” value (traction reflex in mice) was 0.6.
In the case of `CC1(C)CC(C)(C)CC(C)(CCN)C1` [Mrz 2/662], the selectivity ratio [1] is reported as 1 and the selectivity ratio ([2]; rotarod versus mes) is reported as 1.2.
